In patent publication US9079913B2, “Spiro-oxindole MDM2 antagonists” (The Regents of the University of Michigan, priority 2009, dated 2015):
“Also recorded” adds a separate entry of the source. Read-outs that look alike come from different tables or passages of the source.

Key:
[1] = system: Isogenic HCT-116 colon cancer cell lines; experiment: cells; type: cell-based;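 also: cells grown in 96-well plates in McCoy's 5A medium with 10% FBS, exposed to compound for 4 days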
Method: Cells were seeded in 96-well flat bottom cell culture plates at a density of 2−3×10^3 cells/well with compounds and incubated for 4 days.

[2] = system: cancer cell lines with wild-type p53 / mutated or deleted p53 (ATCC); experiment: Cell growth assay (WST-8), other cancer cell lines; type: cell-based
[3] = Animal weight in SJSA-1 xenograft studies; type: in vivo, C.B-17 SCID mice; conditions: SJSA-1 xenograft mice
Method: The size of tumors growing in the mice was measured in two dimensions using calipers. Tumor volume (mm^3)=(A×B2)/2 where A and B are the tumor length and width (in mm), respectively. During treatment, tumor volume and body weight was measured three times a week. After the treatment was stopped, tumor volume (FIGS. 7, 9, 11, and 36) and body weight (FIGS. 8, 10, 12, and 37) was measured at least once a week. Mice were kept for an additional 60 days for further observation of tumor growth and toxicity.
Before treatment began, tumors were allowed to grow to 60-140 mm^3 in volume, at which point the blood vessel supplies to the tumor should have been established. Mice with tumors within acceptable size range were randomized into treatment groups of 8 mice for experimental compounds and 10 mice for the Control group. Experimental compounds were given orally, once per day for 2-3 weeks. The Control group received vehicle alone (10% PEG 400: 3% Cremophor: 87% PBS).

SJSA-1 xenograft tumors = experiment: In vivo efficacy, SJSA-1 xenograft model (tumor volume); design: species or system C.B-17 SCID mice; conditions: for % Tumor Growth Inhib. T/C Control 750 mm^3 D24: Exp. No. 2, SJSA-1 xenograft; for % Tumor Growth Inhib. T/C Control 750 mm^3 D29: Exp. No. 3, SJSA-1 xenograft
Method: SJSA-1 tumor cells were harvested with Trypsin (0.05%)-EDTA (0.53 mM) (GIBCO™, Invitrogen Corp.), growth medium added and cells placed on ice. A cell sample was mixed 1:1 with Trypan Blue (GIBCO™, Invitrogen Corp.) and counted on a hemocytometer to determine the number of live/dead cells. Cells were washed once with 1×PBS (GIBCO™, Invitrogen Corp.) and resuspended in PBS. For Matrigel injections, after washing in PBS, cells are resuspended in an ice cold mixture of 1:1 PBS and Matrigel (BD Biosciences, Invitrogen Corp.) for a final Matrigel protein concentration of 5 mg/ml. SJSA-1 tumors were inoculated into C.B-17 SCID mice at 5×10^6 cells in 0.1 ml with Matrigel. Cells were injected s.c. into the flank region of each mouse using a 27 gauge needle.
The size of tumors growing in the mice was measured in two dimensions using calipers. Tumor volume (mm^3)=(A×B2)/2 where A and B are the tumor length and width (in mm), respectively. During treatment, tumor volume and body weight was measured three times a week. […] Mice were kept for an additional 60 days for further observation of tumor growth and toxicity.

[4] = In vitro microsomal stability, rat; type: in vitro ADME
[5] = In vitro microsomal stability, human; type: in vitro ADME
[6] = Pharmacokinetic studies in rats; type: in vivo, rat; conditions: for oral bioavailability / oral pharmacokinetics in rats (in words): oral dosing; for Vd: iv, read-out: Vz
Method: Pharmacokinetic studies on MDM2 inhibitors were carried out in rat. For comparison, the MDM2 inhibitor, AT-219, was also studied.

[7] = target: recombinant human His-tagged MDM2 protein (residues 1-118) (Homo sapiens (Human), UniProt Q00987); experiment: Fluorescence-polarization MDM2 binding assay;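 also: fluorescence polarization read after three hours of incubation in potassium phosphate buffer containing bovine gamma globulin and Triton X-100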
Chain of recombinant human His-tagged MDM2 protein (residues 1-118) (Q00987 1-118): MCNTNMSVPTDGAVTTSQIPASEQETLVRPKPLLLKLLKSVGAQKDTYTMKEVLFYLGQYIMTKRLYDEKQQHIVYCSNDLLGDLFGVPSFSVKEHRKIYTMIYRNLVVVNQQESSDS

[8] = Homo sapiens, HCT-116, read-out: HCT-116 (p53 wild-type) IC50
[9] = Homo sapiens, LNCaP, read-out: LNCAP (p53 wild-type) IC50
[10] = Homo sapiens, SJSA-1, read-out: SJSA-1 (p53 wild-type) IC50
[11] = rat, IV, 5 mg/kg, plasma, parent compound
[12] = rat, plasma, 5 mg/kg, rat, IV, 5 mg/kg, plasma, parent compound
[13] = rat liver microsomes, NADPH, 0 min
[14] = rat liver microsomes, NADPH, 5 min
[15] = rat liver microsomes, NADPH, 10 min
[16] = rat liver microsomes, NADPH, 15 min
[17] = rat liver microsomes, NADPH, 30 min
[18] = rat liver microsomes, NADPH, 45 min
[19] = rat liver microsomes, NADPH, 60 min
[20] = human liver microsomes, NADPH, 0 min
[21] = human liver microsomes, NADPH, 5 min
[22] = human liver microsomes, NADPH, 10 min
[23] = human liver microsomes, NADPH, 15 min
[24] = human liver microsomes, NADPH, 30 min
[25] = human liver microsomes, NADPH, 45 min
[26] = human liver microsomes, NADPH, 60 min

CC(C)(C)C[C@H]1N[C@@H](C(=O)N[C@H]2C[C@@H](O)C2)[C@H](c2cccc(Cl)c2F)[C@@]12C(=O)Nc1cc(Cl)ccc12 (stereo in doubt) [MI-519-63]
IC50 [1, 8]: 2 µM | IC50 [2, 9]: 2.3 µM | IC50 [2, 10]: 2.1 µM | weight loss in the animals (in words) [3]: without significant weight loss | % Tumor Growth Inhib. T/C Control 750 mm^3 D24 (SJSA-1 xenograft tumors; PO 100 mg/kg): 0.0% | % of compound remaining when incubated in rat liver microsomes with NADPH ([4]; 0 min): 100% | % of compound remaining when incubated in rat liver microsomes with NADPH ([4]; 5 min): 66.01% | % of compound remaining when incubated in rat liver microsomes with NADPH ([4]; 10 min): 53.79% | % of compound remaining when incubated in rat liver microsomes with NADPH ([4]; 15 min): 46.44% | % of compound remaining when incubated in rat liver microsomes with NADPH ([4]; 30 min): 29.41% | % of compound remaining when incubated in rat liver microsomes with NADPH ([4]; 45 min): 27.72% | % of compound remaining when incubated in rat liver microsomes with NADPH ([4]; 60 min): 23.28% | microsomal stability (in words) ([4]; rat liver microsomes): comparable microsomal stability to MI-219 | % of compound remaining when incubated in human liver microsomes with NADPH ([5]; 0 min): 100.00% | % of compound remaining when incubated in human liver microsomes with NADPH ([5]; 5 min): 77.75% | % of compound remaining when incubated in human liver microsomes with NADPH ([5]; 10 min): 59.66% | % of compound remaining when incubated in human liver microsomes with NADPH ([5]; 15 min): 50.42% | % of compound remaining when incubated in human liver microsomes with NADPH ([5]; 30 min): 31.21% | % of compound remaining when incubated in human liver microsomes with NADPH ([5]; 45 min): 26.74% | % of compound remaining when incubated in human liver microsomes with NADPH ([5]; 60 min): 21.5% | microsomal stability (in words) ([5]; human liver microsomes): comparable microsomal stability to MI-219

CC(C)(C)C[C@H]1N[C@@H](C(=O)NC2CCC(O)CC2)[C@H](c2cccc(Cl)c2F)[C@@]12C(=O)Nc1cc(Cl)ccc12 (stereo partly drawn) [MI-773]
oral bioavailability / oral pharmacokinetics in rats (in words) ([6]; rats): good oral bioavailability; also recorded: high oral bioavailability | CLz [6, 11]: 1.0 L/h/kg | Vd [6, 12]: 3 L/kg | pharmacokinetic profile (in words) ([6]; rats, intravenous and oral routes of dosing): improved PK parameters over MI-219 | IC50 ([1]; Homo sapiens, HCT-116, read-out: HCT-116 (p53-/-) IC50, Table 19A, HCT-116 p53-/-, cell growth): > 10 µM | IC50 ([1]; Homo sapiens, HCT-116, read-out: HCT-116 (p53 wild-type) IC50, Table 19A, HCT-116 p53 wild-type, cell growth): < 1 µM | IC50 [2, 9]: < 1 µM | IC50 ([2]; Homo sapiens, PC-3, read-out: PC-3 (deleted p53) IC50): > 10 µM | IC50 [2, 10]: < 1 µM | weight loss in the animals (in words) [3]: without significant weight loss | % Tumor Growth Inhib. T/C Control 750 mm^3 D24 (SJSA-1 xenograft tumors; PO 100 mg/kg): 3.2% | % Tumor Growth Inhib. T/C Control 750 mm^3 D29 (SJSA-1 xenograft tumors; PO 30 mg/kg): 24.3% | % Tumor Growth Inhib. T/C Control 750 mm^3 D29 (SJSA-1 xenograft tumors; PO 100 mg/kg): 1.2% | in vivo efficacy (in words) (SJSA-1 xenograft tumors; SJSA-1 xenograft, oral once per day 2-3 weeks): good in vivo efficacy | % of compound remaining when incubated in rat liver microsomes with NADPH [4, 13]: 100.00% | % of compound remaining when incubated in rat liver microsomes with NADPH [4, 14]: 81.32% | % of compound remaining when incubated in rat liver microsomes with NADPH [4, 15]: 60.00% | % of compound remaining when incubated in rat liver microsomes with NADPH [4, 16]: 56.58% | % of compound remaining when incubated in rat liver microsomes with NADPH [4, 17]: 46.11% | % of compound remaining when incubated in rat liver microsomes with NADPH [4, 18]: 41.18% | % of compound remaining when incubated in rat liver microsomes with NADPH [4, 19]: 33.26% | half-life ([4]; rat, liver microsomes, rat liver microsomes with NADPH): 17.3 min | microsomal stability (in words) ([5]; human liver microsomes): more stable than MI-219 | % of compound remaining when incubated in human liver microsomes with NADPH [5, 20]: 100.00% | % of compound remaining when incubated in human liver microsomes with NADPH [5, 21]: 83.70% | % of compound remaining when incubated in human liver microsomes with NADPH [5, 22]: 82.97% | % of compound remaining when incubated in human liver microsomes with NADPH [5, 23]: 69.38% | % of compound remaining when incubated in human liver microsomes with NADPH [5, 24]: 52.36% | % of compound remaining when incubated in human liver microsomes with NADPH [5, 25]: 42.57% | % of compound remaining when incubated in human liver microsomes with NADPH [5, 26]: 28.77% | half-life ([5]; human, liver microsomes, human liver microsomes with NADPH): 31.5 min

CC(C)(C)C[C@H]1N[C@@H](C(=O)NC2CCC(NS(C)(=O)=O)CC2)[C@H](c2cccc(Cl)c2F)[C@@]12C(=O)Nc1cc(Cl)ccc12 (stereo partly drawn) [MI-772]
oral bioavailability / oral pharmacokinetics in rats (in words) ([6]; rats): modest oral bioavailability | CLz [6, 11]: 1.0 L/h/kg | Vz [6, 11]: 10.9 L/kg | half-life in rats (in words) ([6]; rats, intravenous and oral): long plasma half-life | IC50 ([1]; read-out: HCT-116 (p53-/-) IC50, Table 19A, HCT-116 p53-/-, cell growth): > 5 µM | IC50 ([1]; read-out: HCT-116 (p53 wild-type) IC50, Table 19A, HCT-116 p53 wild-type, cell growth): < 1 µM | relative potency vs epimer, binding and cellular studies (in words) [2]: several times more potent than MI-771 | IC50 ([2]; Table 19A, LNCAP cells, p53 wild-type, cell growth, read-out: LNCAP (p53 wild-type) IC50): < 1 µM | IC50 ([2]; Table 19A, PC-3 cells, deleted p53, cell growth, read-out: PC-3 (deleted p53) IC50): > 5 µM | IC50 ([2]; Table 19A, SJSA-1 cells, p53 wild-type, cell growth, read-out: SJSA-1 (p53 wild-type) IC50): < 1 µM | cell growth inhibition (in words) ([2]; cancer cell lines with wild-type p53): effectively inhibit cell growth | IC50 ([7]; Table 19A, FP binding assay, read-out: MDM2 IC50): < 1 µM | binding to MDM2 (in words) ([7]; human MDM2 protein): high affinities | % Tumor Growth Inhib. T/C Control 750 mm^3 D24 (SJSA-1 xenograft tumors; PO 100 mg/kg): 71.1% | microsomal stability (in words) ([4]; rat liver microsomes): very stable | t1/2 ([4]; rat liver microsomes with NADPH): >60 min | % of compound remaining when incubated in rat liver microsomes with NADPH [4, 13]: 100.00% | % of compound remaining when incubated in rat liver microsomes with NADPH [4, 14]: 93.46% | % of compound remaining when incubated in rat liver microsomes with NADPH [4, 15]: 91.15% | % of compound remaining when incubated in rat liver microsomes with NADPH [4, 16]: 89.04% | % of compound remaining when incubated in rat liver microsomes with NADPH [4, 17]: 88.27% | % of compound remaining when incubated in rat liver microsomes with NADPH [4, 18]: 78.65% | % of compound remaining when incubated in rat liver microsomes with NADPH [4, 19]: 75.96% | microsomal stability (in words) ([5]; human liver microsomes): very stable | t1/2 ([5]; human liver microsomes with NADPH): >60 min | % of compound remaining when incubated in human liver microsomes with NADPH [5, 20]: 100.00% | % of compound remaining when incubated in human liver microsomes with NADPH [5, 21]: 95.37% | % of compound remaining when incubated in human liver microsomes with NADPH [5, 22]: 86.87% | % of compound remaining when incubated in human liver microsomes with NADPH [5, 23]: 82.24% | % of compound remaining when incubated in human liver microsomes with NADPH [5, 24]: 77.91% | % of compound remaining when incubated in human liver microsomes with NADPH [5, 25]: 63.28% | % of compound remaining when incubated in human liver microsomes with NADPH [5, 26]: 56.87%

CC(C)(C)C[C@H]1N[C@@H](C(=O)N[C@H]2C[C@@](C)(O)C2)[C@H](c2cccc(Cl)c2F)[C@@]12C(=O)Nc1cc(Cl)ccc12 [MI-519-64]
CLz [6, 11]: 1.8 L/h/kg | Vd [6, 12]: 9 L/kg | IC50 ([1]; Homo sapiens, HCT-116, read-out: HCT-116 (p53-/-) IC50): > 10 µM | IC50 [1, 8]: < 1 µM | cell growth inhibition (in words) [2]: more potent than its epimer MI-519-65; also recorded: effectively inhibit cancer cell growth | IC50 [2, 9]: < 1 µM | IC50 [2, 10]: < 1 µM | weight loss in the animals (in words) [3]: without significant weight loss | % Tumor Growth Inhib. T/C Control 750 mm^3 D29 (SJSA-1 xenograft tumors; PO 30 mg/kg): 20.7% | % Tumor Growth Inhib. T/C Control 750 mm^3 D29 (SJSA-1 xenograft tumors; PO 100 mg/kg): 5.3% | % of compound remaining when incubated in rat liver microsomes with NADPH ([4]; 0 min): 100% | % of compound remaining when incubated in rat liver microsomes with NADPH ([4]; 5 min): 71.95% | % of compound remaining when incubated in rat liver microsomes with NADPH ([4]; 10 min): 64.86% | % of compound remaining when incubated in rat liver microsomes with NADPH ([4]; 15 min): 48.47% | % of compound remaining when incubated in rat liver microsomes with NADPH ([4]; 30 min): 43.38% | % of compound remaining when incubated in rat liver microsomes with NADPH ([4]; 45 min): 41.19% | % of compound remaining when incubated in rat liver microsomes with NADPH ([4]; 60 min): 43.03% | % of compound remaining when incubated in human liver microsomes with NADPH ([5]; 0 min): 100% | % of compound remaining when incubated in human liver microsomes with NADPH ([5]; 5 min): 83.66% | % of compound remaining when incubated in human liver microsomes with NADPH ([5]; 10 min): 80.61% | % of compound remaining when incubated in human liver microsomes with NADPH ([5]; 15 min): 65.86% | % of compound remaining when incubated in human liver microsomes with NADPH ([5]; 30 min): 61.26% | % of compound remaining when incubated in human liver microsomes with NADPH ([5]; 45 min): 55.9% | % of compound remaining when incubated in human liver microsomes with NADPH ([5]; 60 min): 53.21%
